≈ marks a conversion by molar mass, not a printed value.
Assays:
[1] = system: azole-resistant Candida albicans R357 strain; experiment: microbe, parasite or virus in culture; format: cell-based
C. albicans NRRL Y-477 [2] = experiment: microbe, parasite or virus in culture; format: cell-based, Candida albicans
[3] = system: C. glabrata ATCC 90030, ATCC 2001; experiment: microbe, parasite or virus in culture; format: cell-based, Candida glabrata
C. parapsilosis CP02 [4] = experiment: microbe, parasite or virus in culture; format: cell-based, Candida parapsilosis
C. krusei ATCC 6258 [5] = experiment: microbe, parasite or virus in culture; format: cell-based, Candida krusei
[6] = system: azole-resistant Candida albicans (R357); experiment: Disseminated infection model in neutropenic ICR mice, kidney fungal counts (Example 10, Tables 22-23); format: in vivo
[7] = system: Aspergillus fumigatus (ATCC 13073); experiment: Neutropenic mouse model of disseminated aspergillosis, survival; format: in vivo; conditions: in vivo
[8] = Solubility of test articles in vehicle, visual observation (Table 22); format: physicochemical
Procedure: Test Articles. […] Amphotericin B and fluconazole were in powder form. Amphotericin B was dissolved in 0.9% NaCl. Fluconazole was dissolved in water (WFI: water for injection).

C. albicans NRRL Y-477 [9] = experiment: Broth microdilution MIC (CLSI), Examples 3 and 4
Procedure: Antifungal susceptibility testing. […] MIC assays were performed in triplicate.

[10] = system: C. glabrata ATCC 90030, ATCC 2001; experiment: Broth microdilution MIC (CLSI), Examples 3 and 4; conditions: for Broth MIC: 24 h, ~50% inhibition
Procedure: (§1) Antifungal susceptibility testing. Candida strains were cultured aerobically at 35° C. on SDA plates or in RPMI 1640 broth (pH 7.0). […] MIC assays were performed in triplicate.

C. parapsilosis CP02 [11] = experiment: Broth microdilution MIC (CLSI), Examples 3 and 4; conditions: CP02 wild-type; 24 h, ~50% inhibition
Procedure: as §1

C. krusei ATCC 6258 [12] = experiment: Broth microdilution MIC (CLSI), Examples 3 and 4; conditions: ATCC 6258 wild-type; 24 h, ~50% inhibition
Procedure: as §1

C[C@@H]1[C@H](O)[C@@H](C)/C=C/C=C/C=C/C=C/C=C/C=C/C=C/[C@H](O[C@@H]2O[C@H](C)[C@@H](O)[C@H](N)[C@@H]2O)C[C@@H]2O[C@](O)(C[C@@H](O)C[C@@H](O)[C@H](O)CC[C@@H](O)C[C@@H](O)CC(=O)O[C@H]1C)C[C@H](O)[C@H]2C(=O)O [AMB, amphotericin B]
Susceptibility (CLSI) ([1]; C. albicans R357): S | MIC ([1]; endpoint 100% inhibition): 0.5 µg/mL (≈ 0.541 µM) | MIC (C. albicans NRRL Y-477 [2]; NRRL Y-477 P20-1, selecting drug ANID, Fks1 HS1 S645Y, 48 h read): 0.5 µg/mL (≈ 0.541 µM) | MIC (C. albicans NRRL Y-477 [2]; NRRL Y-477 P20-1, selecting drug CAS): 0.25 µg/mL (≈ 0.271 µM) | MIC (C. albicans NRRL Y-477 [2]; NRRL Y-477 P20-1, selecting drug CMP1, 48 h read): 0.5 µg/mL (≈ 0.541 µM) | MIC ([3]; ATCC 2001 P20-2, selecting drug ANID, Fks1 HS1 D632Y): 1 µg/mL (≈ 1.08 µM) | MIC ([3]; ATCC 2001 P20-2, selecting drug CAS): 0.5 µg/mL (≈ 0.541 µM) | MIC ([3]; ATCC 2001 P20-2, selecting drug CMP1): 0.25 µg/mL (≈ 0.271 µM) | MIC ([3]; ATCC 90030 P20-1, selecting drug ANID, Fks2 HS1 D666I, 48 h read): 0.5 µg/mL (≈ 0.541 µM) | MIC ([3]; ATCC 90030 P20-1, selecting drug CAS, Fks2 HS1 F659I D666Y, 48 h read): 0.25 µg/mL (≈ 0.271 µM) | MIC ([3]; ATCC 90030 P20-2, selecting drug CMP1): 0.5 µg/mL (≈ 0.541 µM) | MIC (C. parapsilosis CP02 [4]; CP02 P20-1, selecting drug ANID): 0.5 µg/mL (≈ 0.541 µM) | MIC (C. parapsilosis CP02 [4]; CP02 P20-1, selecting drug CAS): 0.5 µg/mL (≈ 0.541 µM) | MIC (C. parapsilosis CP02 [4]; CP02 P20-1, selecting drug CMP1): 0.5 µg/mL (≈ 0.541 µM) | MIC (C. krusei ATCC 6258 [5]; ATCC 6258 P20-2, selecting drug ANID): 1 µg/mL (≈ 1.08 µM) | MIC (C. krusei ATCC 6258 [5]; ATCC 6258 P20-2, selecting drug CAS, Fks1 HS2 I1366S): 1 µg/mL (≈ 1.08 µM) | MIC (C. krusei ATCC 6258 [5]; ATCC 6258 P20-2, selecting drug CMP1, Fks1 HS2 I1366S): 1 µg/mL (≈ 1.08 µM) | reduction in fungal counts ([6]; 3 mg/kg IV once, 72 hr time point): two log reduction | antimicrobial effect versus vehicle (one-way ANOVA, Dunnett's test) ([6]; 48 and 72 hr after infection, Compound 1 3, 10, 30 mg/kg IP, amphotericin B 1 and 3 mg/kg IV, fluconazole 20 mg/kg PO): Significant effects | survival versus vehicle [7]: significantly longer survival than vehicle | Solubility [8]: S | MIC (C. albicans NRRL Y-477 [9]; NRRL Y-477 spontaneous mutant, Fks1 HS1 S645P): 0.25 µg/mL (≈ 0.271 µM) | Broth MIC (C. albicans NRRL Y-477 [9]; NRRL Y-477 wild-type, 24 h, ~50% inhibition): 0.5 µg/mL | MIC ([10]; ATCC 2001 spontaneous mutant, Fks2 HS1 D666N): 0.5 µg/mL (≈ 0.541 µM) | MIC ([10]; ATCC 2001 spontaneous mutant, Fks2 HS1 D666Y): 0.5 µg/mL (≈ 0.541 µM) | MIC ([10]; ATCC 2001 spontaneous mutant, Fks2 HS1 R665G): 0.25 µg/mL (≈ 0.271 µM) | MIC ([10]; ATCC 2001 spontaneous mutant, Fks2 HS1 S663F): 0.25 µg/mL (≈ 0.271 µM) | MIC ([10]; ATCC 2001 spontaneous mutant, Fks2 HS1 ΔF659): 0.25 µg/mL (≈ 0.271 µM) | MIC ([10]; ATCC 2001 spontaneous mutant, Fks2 HS2 R1378S): 0.25 µg/mL (≈ 0.271 µM) | Broth MIC ([10]; ATCC 2001 wild-type): 0.5 µg/mL | MIC ([10]; ATCC 90030 spontaneous mutant, Fks2 HS1 D666H): 0.5 µg/mL (≈ 0.541 µM) | MIC ([10]; ATCC 90030 spontaneous mutant, Fks2 HS1 ΔF659): 0.5 µg/mL (≈ 0.541 µM) | Broth MIC ([10]; ATCC 90030 wild-type): 0.5 µg/mL | Broth MIC (C. parapsilosis CP02 [11]): 0.5 µg/mL | Broth MIC (C. krusei ATCC 6258 [12]): 1 µg/mL
